# Measured values: article PMC11793105, “A kalihinol analog disrupts apicoplast function and vesicular trafficking in P. falciparum malaria” (Science (New York, N.Y.), 2024)
# Several values for one entry are separate records, joined by “and”; a condition that tells them apart may be missing. Identical values can stand only once. Like-named read-outs stand apart in the source and are kept apart here.
# How the values were obtained:
# THP1 = experiment: Human cell line activity, THP1; type: cell-based; settings: THP-1, read-out: IC50 (µM) THP1
# erythrocytes = experiment: Hemolytic activity assay (Giemsa smeared culture images); type: cell-based; settings: concentrations up to 10 μM
# Method: and two formamide derivatives.
# 2 and GB209-3 compounds tested after 48Hr and 72Hr drug incubation. […]
# [1] = Pharmacokinetic profile at 25 and 50 mg/Kg (Table S9b); type: in vivo, Male CD1 mouse; settings: for Cmax: oral, blood; for AUC(0-inf): read-out: AUCINF_obs
# Method: An Acquity ultra-performance liquid chromatography (UPLC) system (Waters Corp., Milford, MA, USA) couple to a triple quadrupole mass spectrometer (API 4000, AB Sciex, Foster City, CA, USA) was used for the analysis ([99]).
# Blood concentration time data were analyzed by Non-Compartmental PK analysis using Phoenix WinNonlin software (Certara, NY, US) to calculate PK parameters. […]
# were housed in cages (Tecniplast®). The cages contained autoclaved dust free corncob bedding […]
# provided ad libitum. Environmental conditions: Photoperiods, simulated dawn/dusk facility, were […]
# The temperature range was 22± 2 °C. […]
# route, once a day, 10ml/kg). […]
# Two mice were treated at 50
# To confirm the data, 3 animals per dose
# (hematology, clinical chemistry, and necropsy). Additionally in the same animals with the same […]
# determination of blood level exposures and pharmacokinetic analysis. […]
# Peripheral blood […]
# samples (15 µL) were taken at frequent intervals, mixed with 30 µL of H2O milli Q and immediately frozen on dry ice. The frozen samples were stored at −80 °C until analysis. Vehicle-treated mice experienced the same blood-sampling regimen (table S9, S10).
# Bioanalysis and pharmacokinetics analysis: LC-MS
# Bioanalysis of in vivo samples: Sample pretreatment Before the analysis 15ul of blood samples were defrost at ambient temperature and mixture with 200ul of ACN:MeOH (80:20). After protein precipitation samples were filtered by 0.45um filter plate (Multiscreen Solvinert 0.45um FTPE, Millipore). The 2ul TFA (Trifluoroacetic acid, sigmaAldrich) were added to each filtered sample in order to derivatize the compound to formamide analogue. This process occurs spontaneously.
# LC-MS analysis An Acquity Ultra-Performance liquid chromatography (UPLC) system (Waters Corp., Milford, MA, USA) couple to a triple quadrupole mass spectrometer (API 4000™, AB Sciex, Foster City, CA, USA) was used for the analysis. The MS/MS transition was 311.340 / […]
# The chromatographic separation was carried out at 0.4ml/min in a Acquity UPLC™ BEH C18 column (50x2.1 mm i.d., […]; Waters Corp.) at 40 °C with Acetonitrile (sigmaAldrich) and 0.1% formic acid as eluents.
# Pharmacokinetic analysis Blood concentration time data were analyzed by Non-Compartmental PK analysis using Phoenix WinNonlin software (Certara NY, US) to calculate PK parameters. The maximum observed concentration (Cmax) and the time to reach it (Tmax), were determined. The area under concentration-time curve from dosing at time zero to the last measured concentration […]
# time (AUClast) and the total area under concentration-time curve from time zero extrapolated to infinity (AUCinf), were calculated using a linear trapezoidal rule. […]
# [2] = male, CD1, mouse, whole blood, po, 25 mg/kg, Mean
# [3] = male, CD1, mouse, whole blood, po, 50 mg/kg, Mean
# [4] = male, CD1, mouse, whole blood, po, 50 mg/kg, individual mice
smiles,measurement,setting,value
[C-]#[N+][C@]1(C)CC[C@H]2[C@@H]([C@@H](C(C)C)CC[C@]2(C)[N+]#[C-])[C@H]1O [MED6-189],IC50,THP1,12 µM
same,hemolytic activity,erythrocytes,no hemolytic activity
same,AUCINF_D_obs,"[1]; 25 mg/Kg, Mean",1505 kg·ng·h/mL/mg
same,AUC_%Extrap_obs,"[1]; 25 mg/Kg, Mean",0.955%
same,AUClast_D,"[1]; 25 mg/Kg, Mean",1491.7 kg·ng·h/mL/mg
same,Cmax_D,"[1]; 25 mg/Kg, Mean",188.6 kg·ng/mL/mg
same,HL_Lambda_z,"[1]; 25 mg/Kg, Mean",3.711 h
same,AUCINF_D_obs,"[1]; 25 mg/Kg, individual mice",2105.77 kg·ng·h/mL/mg and 904.22 kg·ng·h/mL/mg
same,AUCINF_obs,"[1]; 25 mg/Kg, individual mice",52644.4 ng·h/mL and 22605.6 ng·h/mL
same,AUC_%Extrap_obs,"[1]; 25 mg/Kg, individual mice",0.78% and 1.13%
same,AUClast,"[1]; 25 mg/Kg, individual mice",52232.7 ng·h/mL and 22350.5 ng·h/mL
same,AUClast_D,"[1]; 25 mg/Kg, individual mice",2089.31 kg·ng·h/mL/mg and 894.02 kg·ng·h/mL/mg
same,Cmax_D,"[1]; 25 mg/Kg, individual mice",232.4 kg·ng/mL/mg and 144.8 kg·ng/mL/mg
same,HL_Lambda_z,"[1]; 25 mg/Kg, individual mice",3.31 h and 4.11 h
same,Cmax,"[1]; 25 mg/Kg, individual mice 1 and 2",3620 ng/mL
same,AUCINF_D_obs,"[1]; 50 mg/Kg, Mean",2099.8 kg·ng·h/mL/mg
same,AUC_%Extrap_obs,"[1]; 50 mg/Kg, Mean",4.415%
same,AUClast_D,"[1]; 50 mg/Kg, Mean",2014.32 kg·ng·h/mL/mg
same,Cmax_D,"[1]; 50 mg/Kg, Mean",158.4 kg·ng/mL/mg
same,HL_Lambda_z,"[1]; 50 mg/Kg, Mean",4.536 h
same,AUCINF_D_obs,"[1]; 50 mg/Kg, individual mice",1882 kg·ng·h/mL/mg and 2317.54 kg·ng·h/mL/mg
same,AUCINF_obs,"[1]; 50 mg/Kg, individual mice",115877 ng·h/mL
same,AUC_%Extrap_obs,"[1]; 50 mg/Kg, individual mice",7.74% and 1.09%
same,AUClast,"[1]; 50 mg/Kg, individual mice",114617 ng·h/mL
same,AUClast_D,"[1]; 50 mg/Kg, individual mice",1736.3 kg·ng·h/mL/mg and 2292.34 kg·ng·h/mL/mg
same,Cmax_D,"[1]; 50 mg/Kg, individual mice",137.2 kg·ng/mL/mg and 179.6 kg·ng/mL/mg
same,HL_Lambda_z,"[1]; 50 mg/Kg, individual mice",5.74 h and 3.33 h
same,Cmax,"[1]; 50 mg/Kg, individual mice 1 and 2",8980 ng/mL
same,AUC(0-t),[1]; [2],37300 ng·h/mL
same,AUC(0-inf),[1]; [2],37600 ng·h/mL
same,Cmax,"[1]; male, CD1, mouse, whole blood, po, 25 mg/kg, Mean of 2 mice, read-out: Cmax",4720 ng/mL
same,Cmax,"[1]; male, CD1, mouse, whole blood, po, 25 mg/kg, individual mice 1 and 2, read-out: Cmax",5810 ng/mL
same,AUC(0-t),[1]; [3],101000 ng·h/mL
same,AUC(0-inf),[1]; [3],105000 ng·h/mL
same,AUC(0-t),[1]; [4],86800 ng·h/mL
same,AUC(0-inf),[1]; [4],94100 ng·h/mL
same,Cmax,"[1]; male, CD1, mouse, whole blood, po, 50 mg/kg, Mean of 2 mice, read-out: Cmax",7920 ng/mL
same,Cmax,"[1]; male, CD1, mouse, whole blood, po, 50 mg/kg, individual mice 1 and 2, read-out: Cmax",6860 ng/mL
same,Tmax,"[1]; male, CD1, mouse, whole blood, po, 25 mg/Kg, individual mice",4 h
same,Tmax,"[1]; male, CD1, mouse, whole blood, po, 50 mg/Kg, individual mice",7 h
